US20130189764A1, “SELECTIVE GROWTH MEDIA” (Oxide Limited, priority 2000, published 2013)
Converted amounts (≈) assume the structure as drawn. Each block holds one compound with its values, some of them ahead of it.

Assays:
Enterococcus faecium 220 = test: MIC in DMSal medium (Example 17); type: cell-based; conditions: Enterococcus faecium 220, DMSal medium
E. coli 607 = test: MIC in DMSal medium (Example 17); type: cell-based; conditions: E. coli 607, DMSal medium
[1] = tested on: Enterobacter sakazakii 1888; test: MIC in DMSal medium (Example 17); type: cell-based; conditions: Enterobacter sakazakii 1888, DMSal medium
[2] = tested on: Salmonella typhimurium 722; test: MIC in DMSal medium (Example 17); type: cell-based; conditions: for MIC: Salmonella typhimurium 722, DMSal medium; for effect on growth of Salmonella typhimurium: DMSal
Description: (§1) Isoleucyl-AEP and sarcosyl-alanyl-AEP were compared to ala-AEP (all in DMSal medium) for the ability to selectively recover two clinically important pathogenic bacteria: Salmonella and Staphylococcus aureus.
(§2) For selective growth of Salmonella inhibition of Citrobacter, Enterobacter sakazakii and E. coli is important. […] Sarcosyl-alanyl-AEP used at a concentration of 1.0 μg/ml is sufficient to inhibit the growth of all three undesired bacteria while having no effect on growth of Salmonella typhimurium. […] Alternatively, a concentration of 2.0 μg/ml of isoleucyl-AEP is required to inhibit the growth of Citrobacter, Enterobacter sakazakii and E. coli and this concentration has no effect on the Salmonella typhimurium strain tested.

S. aureus 198 = test: MIC in DMSal medium (Example 17); type: cell-based; conditions: S. aureus 198, DMSal medium
Excerpt: as §1

[3] = tested on: Enterococcus faecalis 581; test: MIC in DMSal medium (Example 17); type: cell-based; conditions: Enterococcus faecalis 581, DMSal medium
Excerpt: as §1

S. aureus (MRSA) 934 = test: MIC in DMSal medium (Example 17); type: cell-based; conditions: S. aureus (MRSA) 934, DMSal medium
Excerpt: as §1

S. aureus ss aureus 2355 = test: MIC in DMSal medium (Example 17); type: cell-based; conditions: S. aureus ss aureus 2355, DMSal medium
Excerpt: as §1

[4] = tested on: Citrobacter, Enterobacter sakazakii and E. coli; test: inhibition of the three undesired bacteria in DMSal (Example 17); type: cell-based
Description: as §1, §2

[5] = tested on: Enterococcus faecalis 640; test: MIC in DMSal medium (Example 17); type: cell-based; conditions: Enterococcus faecalis 640, DMSal medium
[6] = tested on: Enterococcus faecalis 501; test: MIC in DMSal medium (Example 17); type: cell-based; conditions: Enterococcus faecalis 501, DMSal medium
Citrobacter freundii 370 = test: MIC in DMSal medium (Example 17); type: cell-based; conditions: Citrobacter freundii 370, DMSal medium
[7] = log octanol/water; footnote a: Leo et al (1971); cited from earlier work
S. aureus OCC 102 = test: growth on nutrient agar, mixed culture with K. pneumoniae (Example 6); type: cell-based, Staphylococcus aureus
Excerpt: (§3) Example 1 was repeated, this time using a mixed culture of K. pneumoniae CMCC 3077 and S. aureus OCC 102. The results for growth in the presence of AEP or alaphosphin are shown in FIGS. 7 and 8 respectively: empty columns represent growth of S. aureus, the shaded columns represent growth of K. pneumoniae. […] Accordingly, there is a considerable alaphosphin concentration range over which S. aureus will readily grow whilst K. pneumoniae will be inhibited. Even if K. pneumoniae cells lyse due to the toxic effect of AEP released intracellularly, the AEP is not toxic for S. aureus at the concentrations involved.

K. pneumoniae CMCC 3077 [8] = test: growth on nutrient agar, mixed culture with B. subtilis (Example 8); type: cell-based, Klebsiella pneumoniae; conditions: all concentrations tested
Excerpt: (§4) Example 6 was repeated, this time using a mixed culture of B. subtilis OCC 214 and K. pneumoniae CMCC 3077, in the presence of AEP or alaphosphin. The empty columns show the growth of B. subtilis, the shaded columns denote growth of K. pneumoniae.

[9] = tested on: heat stressed Salmonella typhimurium (OCC 1792); test: resuscitation of heat-stressed cells, microtitre MPN method (Example 14); type: cell-based; conditions: BPW supplemented with 3 different levels of AEP, relative to BPW alone
Description: Salmonella typhimurium (OCC 1792) was heat stressed at 51.4° C. for 25 minutes according to the protocol of Stephens et al. (1997 J. Appl. Micro. 8, 445-455). Cells were diluted in 7 different resuscitation media: yeast extract broth with a high reactive oxygen species content that is inhibitory to stressed cells, SPRINT enrichment broth supplemented with Oxyrase that is an optimised resuscitation medium, BPW as the control that has typical resuscitation properties, BPW supplemented with NaCl that is inhibitory to stressed cells, and BPW supplemented with 3 different levels of AEP. Resuscitation was quantified using a microtitre MPN method.
Typical results are shown in FIG. 20 which is a bar chart showing the difference in growth (Log cfu/ml) of the stressed cells in various media relative to growth in BPW alone.

K. pneumoniae CMCC 3077 [10] = test: growth on nutrient agar, mixed culture with S. aureus (Example 6); type: cell-based, Klebsiella pneumoniae
Excerpt: as §3

[11] = tested on: Klebsiella pneumoniae CMCC3077; test: total viable count in Nutrient Broth (Example 10); type: cell-based; conditions: 5 mM in Nutrient Broth, 37° C.
Description: Growth curve data on the activity of alaphosphin towards Klebsiella spp. was generated. Particular attention was paid to measuring the kinetics of inhibition in broth culture. The media used in this work were Buffered Peptone Water, Nutrient Broth and Tryptone Soya Agar. The media were prepared according to the manufacturer's instructions.
The selective agents, AEP (Cat. No. 06655) and alaphosphin (Cat. No. 05260), were supplied by Fluka. They were dissolved in water at 0.5M concentration, filter-sterilised, and 100 μl added to 10 ml of Nutrient Broth to give a final concentration in the test medium of 5 mM of AEP or alaphosphin respectively.
Klebsiella pneumnoniae CMCC3077 was chosen, as it is a food isolate and work had been carried out previously on this organism using alaphosphin and AEP (see preceding examples). The organism was inoculated into Nutrient Broth and incubated overnight at 37° C. […] The test media were incubated at 37° C., and sampled at hourly intervals. The cultures were serially diluted in Buffered Peptone Water and inoculated onto Tryptone Soya Agar. These plates were incubated overnight at 37° C. and the total viable count made the next day.
Typical results are shown in FIG. 15 which is a graph of total viable count (log10 cfu/ml) against time (hours).

[12] = tested on: Klebsiella pneumoniae CMCC 3077; test: growth on nutrient agar streak plates, pure culture (Example 4); type: cell-based; conditions: K. pneumoniae CMCC 3077, nutrient agar, 0-10 mM tested
Excerpt: Example 1 was repeated using Klebsiella pneumoniae CMCC 3077 as the test organism. The results are shown in FIG. 5, and are qualitatively similar to those obtained in example 2.

B. subtilis OCC 214 = test: growth on nutrient agar, mixed culture with K. pneumoniae (Example 8); type: cell-based, Bacillus subtilis; conditions: B. subtilis in mixed culture with K. pneumoniae
Excerpt: as §4

[13] = tested on: Salmonella typhimurium OCC 1870; test: growth on nutrient agar streak plates, pure culture (Example 2); type: cell-based; conditions: S. typhimurium OCC 1870, nutrient agar, 0-10 mM tested
Excerpt: Example 1 was repeated, using Salmonella typhimurium OCC 1870 as the test organism. The results are shown in FIG. 3, which uses the same key as FIG. 2.

[14] = tested on: Staphylococcus aureus OCC 102; test: growth on nutrient agar streak plates, pure culture (Example 5); type: cell-based; conditions: S. aureus OCC 102, nutrient agar, all concentrations tested (up to 10 mM)
Excerpt: Example 1 was repeated using Staphylococcus aureus OCC 102 as the test organism.

[15] = tested on: Enterococcus faecalis OCC 640; test: growth on nutrient agar streak plates, pure culture (Example 3); type: cell-based; conditions: E. faecalis OCC 640, nutrient agar, 0-10 mM tested
Excerpt: Example 1 was repeated using Enterococcus faecalis OCC 640 as the test organism.

[16] = tested on: Bacillus subtilis strain OCC 214; test: growth on nutrient agar streak plates, pure culture (Example 1); type: cell-based; conditions: B. subtilis OCC214, nutrient agar, 0-10 mM tested
Excerpt: In example 1 the sensitivity of Bacillus subtilis strain OCC 214 to alaphosphin or AEP was investigated. […] The organism is known to be LALA-ve, so the observations agree with the known characteristics of the organism.

E. coli OCC 2129 = test: Bioscreen growth, comparison with conventional selective agents (Example 12); type: cell-based, Escherichia coli; conditions: at 12 hours
Description: (§5) The following is an example to illustrate the beneficial lower toxic properties of the new selective agents towards the target microorganism, in this case Salmonella. Two selective agents, cefsulodin and novobiocin, as used conventionally in Salmonella isolation from foods (Humphrey and Whitehead, 1992 British Poultry Science 33, 761-768) were compared with alaphosphin. All were dissolved in deionised water, filter sterilised, and an amount of the solution added to either autoclaved Lab-Lemco broth+phosphate buffer (20 g/l; pH 6.0; ala-AEP) or Buffered Peptone Water (pH 6.8; cefsulodin and novobiocin) to give final concentrations of 66, 16.5 and 11 μg/ml respectively. [The different pH values reflect the different pH optima of the selective agents (ala-AEP was also subsequently used in BPW at pH 6.8 and similar results obtained)]. Volumes (300 μl) were then pipetted into the wells of Bioscreen microtitre plates and 30 μl quantities of 1 in 10,000 dilutions of overnight cultures of E. coli OCC 2129 and Salmonella typhimurium OCC 722, added. Plates were then covered, incubated at 37° C., and the opacity of the organism suspensions measured using a Bioscreen instrument.
(§6) Typical results are shown in FIGS. 17-19, which are graphs of optical density against time for S. typhimurium (circles) and E. coli (squares) in the presence (empty symbols) or absence (filled symbols) of 15 μg/ml cefsulodin (FIG. 17), 10 μg/ml novobiocin (FIG. 18) or 60 μg/ml alaphosphin (FIG. 19).

[17] = tested on: Salmonella typhimurium OCC 722; test: as above; type: cell-based; conditions: Buffered Peptone Water pH 6.8
Description: as §5, §6

[18] = tested on: E. faecalis 640 and S. aureus 106; test: selective recovery of S. aureus on DMSal agar seeded with E. faecalis (Example 18); type: cell-based, Enterococcus faecalis, Staphylococcus aureus; conditions: 20 μg/ml, DMSal agar with horse serum (50 ml/L), approximately 24 hours at 37° C.
Description: The effectiveness of sulfacetamide-β-D-galactoside as a selective agent for recovery of S. aureus in the presence of E. faecalis was tested. Sulfacetamide-β-D-galactoside (20 μg/ml) and horse serum (50 ml/L) was added to DMSal agar to make the test plates; DMSal agar without sulfacetamide-β-D-galactoside served as the control. All plates (with and without sulfacetamide-β-D-galactoside) were seeded with E. faecalis 640 and half of the total number of plates (with and without sulfacetamide-β-D-galactoside) were streaked with S. aureus 106. All plates were incubated for approximately 24 hours at 37° C.
As FIGS. 22a and 22b show, all plates without sulfacetamide-β-D-galactoside supported growth of E. faecalis.

- MIC (Enterococcus faecium 220): >256 µg/mL
- MIC (E. coli 607): 0.05 µg/mL (≈ 0.187 µM)
- MIC [1]: 0.01 µg/mL (≈ 0.0374 µM)
- MIC [2]: 2.0 µg/mL (≈ 7.48 µM)
- MIC (S. aureus 198): >100 µg/mL
- MIC [3]: 8 µg/mL (≈ 29.9 µM)
- MIC (S. aureus (MRSA) 934): >100 µg/mL
- MIC (S. aureus ss aureus 2355): >100 µg/mL
- MIC [5]: 16 µg/mL (≈ 59.9 µM)
- MIC [6]: 8 µg/mL (≈ 29.9 µM)
- MIC (Citrobacter freundii 370): 1.0 µg/mL (≈ 3.74 µM)
Compound: CNCC(=O)NC(C)C(=O)NC(C)P(=O)(O)O (stereo not drawn)
- effect on growth of Salmonella typhimurium ([2]; sarcosyl-alanyl-AEP at 1.0 μg/ml): no effect
- concentration sufficient / required to inhibit the growth of all three undesired bacteria [4]: 1.0 µg/mL

Compound: O=[N+]([O-])c1ccccc1O [2-nitrophenol]
- Log Partition Coefficient [7]: 2.00^a

Compound: CC(N)P(=O)(O)O [AEP, L-1-aminoethylphosphonic acid, reference compound]
- inhibition of growth (in words) (S. aureus OCC 102): neither organism was inhibited
- sensitivity of growth (in words) (K. pneumoniae CMCC 3077 [8]): insensitive
- effect on resuscitation of heat-stressed Salmonella [9]: did not significantly affect
- inhibition of growth (in words) (K. pneumoniae CMCC 3077 [10]): neither organism was inhibited
- effect on growth compared with Nutrient Broth control [11]: little effect
- concentration at which growth is completely inhibited [12]: > 10 mM
- concentration above which some sensitivity is exhibited (B. subtilis OCC 214): above 5 mM
- concentration at which growth is completely inhibited [13]: > 10 mM
- sensitivity of growth (in words) [14]: completely insensitive
- concentration at which growth is completely inhibited [15]: ≥ 5 mM
- concentration at which growth is inhibited [16]: ≥ 5 mM

Compound: Nc1ccccc1 [Aniline]
- Log Partition Coefficient [7]: 0.94^a

Compound: NC(=O)c1cc[n+](CC2=C(C(=O)O)N3C(=O)[C@@H](NC(=O)[C@@H](c4ccccc4)S(=O)(=O)[O-])[C@H]3SC2)cc1 [cefsulodin]
- growth of E. coli relative to S. typhimurium (E. coli OCC 2129; 15 μg/ml cefsulodin): substantially outgrows
- effect on growth of S. typhimurium ([17]; 15 μg/ml cefsulodin): significantly inhibit

- MIC (Enterococcus faecium 220): 5 µg/mL (≈ 21 µM)
- MIC (E. coli 607): 2.0 µg/mL (≈ 8.4 µM)
- MIC [1]: 2.0 µg/mL (≈ 8.4 µM)
- MIC [2]: 10 µg/mL (≈ 42 µM)
- MIC [3]: 5 µg/mL (≈ 21 µM)
- MIC (S. aureus ss aureus 2355): >200 µg/mL
- MIC [5]: 5 µg/mL (≈ 21 µM)
- MIC [6]: 5 µg/mL (≈ 21 µM)
- MIC (Citrobacter freundii 370): 2.0 µg/mL (≈ 8.4 µM)
Compound: CCC(C)C(N)C(=O)NC(C)P(=O)(O)O (stereo not drawn) [isoleucyl-AEP, Isoleucyl-AEP]
- effect on growth of Salmonella typhimurium ([2]; isoleucyl-AEP at 2.0 μg/ml): no effect
- concentration sufficient / required to inhibit the growth of all three undesired bacteria [4]: 2.0 µg/mL

Compound: CO[C@@H]1[C@@H](OC(N)=O)[C@@H](O)[C@H](Oc2ccc3c(O)c(NC(=O)c4ccc(O)c(CC=C(C)C)c4)c(=O)oc3c2C)OC1(C)C [novobiocin]
- growth of E. coli relative to S. typhimurium (E. coli OCC 2129; 10 μg/ml novobiocin): substantially outgrows
- effect on growth of S. typhimurium ([17]; 10 μg/ml novobiocin): significantly inhibit

Compound: CC(=O)NS(=O)(=O)c1ccc(N[C@@H]2O[C@H](CO)[C@H](O)[C@H](O)[C@H]2O)cc1 [sulfacetamide-β-D-galactoside]
- colonies observed on plates seeded with E. faecalis and streaked with S. aureus [18]: only colonies of S. aureus were observed
